Data reported in patent US7902373B2 (Pfizer Inc, priority 2006, dated 2011).

Each compound was assayed against human recombinant H-PGDS (Homo sapiens, UniProt O60760) (assay: Fluorescence intensity h-PGDS TBA enzyme assay). Conditions: Examples up to 622 (and 3a, 3b).
Format: biochemical

human recombinant H-PGDS, sequence (O60760 whole entry): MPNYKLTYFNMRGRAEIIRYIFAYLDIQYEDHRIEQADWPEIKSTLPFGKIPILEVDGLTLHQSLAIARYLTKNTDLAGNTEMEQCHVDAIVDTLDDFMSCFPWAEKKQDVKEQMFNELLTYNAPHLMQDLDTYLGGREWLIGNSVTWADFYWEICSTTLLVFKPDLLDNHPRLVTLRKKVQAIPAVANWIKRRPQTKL

SMILES	IC50 [nM]
CCc1ncc(CN2CCC(NC(=O)c3ccc(-c4cccc(F)c4)nc3)CC2)cn1 [Example 442, N-{1-[(2-Ethylpyrimidin-5-yl)methyl]piperidin-4-yl}-6-(3-fluorophenyl)nicotinamide]	2.78
Cc1ncc(CN2CCC(NC(=O)c3ccc(-c4cccc(F)c4)nc3)CC2)cn1 [Example 443, 6-(3-Fluorophenyl)-N-{1-[(2-methylpyrimidin-5-yl)methyl]piperidin-4-yl}nicotinamide]	1.59
Cc1nc(C)c(CN2CCC(NC(=O)c3ccc(-c4cccc(F)c4)nc3)CC2)nc1C [Example 444, 6-(3-Fluorophenyl)-N-{1-[(3,5,6-trimethylpyrazin-2-yl)methyl]piperidin-4-yl}nicotinamide]	0.135
Cc1nc2ccc(Cl)cn2c1CN1CCC(NC(=O)c2ccc(-c3cccc(F)c3)nc2)CC1 [Example 445, N-{1-[(6-Chloro-2-methylimidazo[1,2-a]pyridin-3-yl)methyl]piperidin-4-yl}-6-(3-fluorophenyl)nicotinamide]	4.24
Cc1ncc(CN2CCC(NC(=O)c3ccc(-c4cccc(F)c4)nc3)CC2)s1 [Example 446, 6-(3-Fluorophenyl)-N-{1-[(2-methyl-1,3-thiazol-5-yl)methyl]piperidin-4-yl}nicotinamide]	0.891
COCn1c(CN2CCC(NC(=O)c3ccc(-c4cccc(F)c4)nc3)CC2)nc2ccccc21 [Example 447, 6-(3-Fluorophenyl)-N-(1-{[1-(methoxymethyl)-1H-benzimidazol-2-yl]methyl}piperidin-4-yl)nicotinamide]	1.1
O=C(NC1CCN(Cc2nc3cccc4c3n2CCC4)CC1)c1ccc(-c2cccc(F)c2)nc1 [Example 448, N-[1-(5,6-Dihydro-4H-imidazo[4,51-ij]quinolin-2-ylmethyl)piperidin-4-yl]-6-(3-fluorophenyl)nicotinamide]	2.45
Cn1c(CN2CCC(NC(=O)c3ccc(-c4cccc(F)c4)nc3)CC2)nc2cc(F)c(F)cc21 [Example 449, N-{1-[(5,6-Difluoro-1-methyl-1H-benzimidazol-2-yl)methyl]piperidin-4-yl}-6-(3-fluorophenyl)nicotinamide]	2.8
O=C(NC1CCN(Cc2ccnc3cccnc23)CC1)c1ccc(-c2cccc(F)c2)nc1 [Example 450, 6-(3-Fluorophenyl)-N-[1-(1,5-naphthyridin-4-ylmethyl)piperidin-4-yl]nicotinamide]	2.05
O=C(NC1CCN(Cc2ccnc3nccnc23)CC1)c1ccc(-c2cccc(F)c2)nc1 [Example 451, 6-(3-Fluorophenyl)-N-[1-(pyrido[2,3-b]pyrazin-8-ylmethyl)piperidin-4-yl]nicotinamide]	0.88
O=C(NC1CCN(Cc2ccnc3ncccc23)CC1)c1ccc(-c2cccc(F)c2)nc1 [Example 452, 6-(3-Fluorophenyl)-N-[1-(1,8-naphthyridin-4-ylmethyl)piperidin-4-yl]nicotinamide]	0.724
O=C(NC1CCN(Cc2ccc(CN3CCOCC3)cc2)CC1)c1ccc(-c2cccc(F)c2)nc1 [Example 453, 6-(3-Fluorophenyl)-N-{1-[4-(morpholin-4-ylmethyl)benzyl]piperidin-4-yl}nicotinamide]	1.42
Cc1nnc(-c2ccc(CN3CCC(NC(=O)c4ccc(-c5cccc(F)c5)nc4)CC3)cc2)o1 [Example 454, 6-(3-Fluorophenyl)-N-{1-[4-(5-methyl-1,3,4-oxadiazol-2-yl)benzyl]piperidin-4-yl}nicotinamide]	0.82
Cc1cnc(CN2CCC(NC(=O)c3ccc(-c4cccc(F)c4)nc3)CC2)cn1 [Example 455, 6-(3-Fluorophenyl)-N-{1-[(5-methylpyrazin-2-yl)methyl]piperidin-4-yl}nicotinamide]	1.34
O=C(NC1CCN(Cc2nc3cccc4c3n2CC=C4)CC1)c1ccc(-c2cccc(F)c2)nc1 [Example 456, 6-(3-Fluorophenyl)-N-[1-(4H-imidazo[4,51-ij]quinolin-2-ylmethyl)piperidin-4-yl]nicotinamide]	2.05
CCOC(=O)c1csc(CN2CCC(NC(=O)c3ccc(-c4cccc(F)c4)nc3)CC2)n1 [Example 457, Ethyl 2-{[4-({[6-(3-fluorophenyl)pyridin-3-yl]carbonyl}amino)piperidin-1-yl]methyl}-1,3-thiazole-4-carboxylate]	0.76
C[C@@H]1Oc2ccc(CN3CCC(NC(=O)c4ccc(-c5cccc(F)c5)nc4)CC3)cc2[C@H]1C(=O)O [Example 458, (2S,3R)-5-{[4-({[6-(3-Fluorophenyl)pyridin-3-yl]carbonyl}amino)piperidin-1-yl]methyl}-2-methyl-2,3-dihydro-1-benzofuran-3-carboxylic acid]	1.78
CCOc1ncccc1CN1CCC(NC(=O)c2ccc(-c3cccc(F)c3)nc2)CC1 [Example 459, N-{1-[(2-Ethoxypyridin-3-yl)methyl]piperidin-4-yl}-6-(3-fluorophenyl)nicotinamide]	0.721
COc1ncccc1CN1CCC(NC(=O)c2ccc(-c3cccc(F)c3)nc2)CC1 [Example 460, 6-(3-Fluorophenyl)-N-{1-[(2-methoxypyridin-3-yl)methyl]piperidin-4-yl}nicotinamide]	1.28
CC(C)Oc1ncccc1CN1CCC(NC(=O)c2ccc(-c3cccc(F)c3)nc2)CC1 [Example 461, 6-(3-Fluorophenyl)-N-{1-[(2-isopropoxypyridin-3-yl)methyl]piperidin-4-yl}nicotinamide]	0.239
O=C(NC1CCN(Cc2cccnc2OCC2CC2)CC1)c1ccc(-c2cccc(F)c2)nc1 [Example 462, N-(1-{[2-(Cyclopropylmethoxy)pyridin-3-yl]methyl}piperidin-4-yl)-6-(3-fluorophenyl)nicotinamide]	0.264

Other lines, results leading:

IC50 [nM]	SMILES
0.385	O=C(NC1CCN(Cc2cccc(CF)n2)CC1)c1ccc(-c2cccc(F)c2)nc1 [Example 463, N-(1-{[6-(Fluoromethyl)pyridin-2-yl]methyl}piperidin-4-yl)-6-(3-fluorophenyl)nicotinamide]
1.02	CC(C)(O)c1cc(CN2CCC(NC(=O)c3ccc(-c4cccc(F)c4)nc3)CC2)ccn1 [Example 464, 6-(3-Fluorophenyl)-N-(1-{[2-(1-hydroxy-1-methylethyl)pyridin-4-yl]methyl}piperidin-4-yl)nicotinamide]
0.881	O=C(NC1CCN(Cc2ccc3c(n2)NCCC3)CC1)c1ccc(-c2cccc(F)c2)nc1 [Example 465, 6-(3-Fluorophenyl)-N-[1-(5,6,7,8-tetrahydro-18-naphthyridin-2-ylmethyl)piperidin-4-yl]nicotinamide]
1.49	CCOC(=O)Cn1cc(CN2CCC(NC(=O)c3ccc(-c4cccc(F)c4)nc3)CC2)cn1 [Example 466, Ethyl (4-{[4-({[6-(3-fluorophenyl)pyridin-3-yl]carbonyl}amino)piperidin-1-yl]methyl}-1H-pyrazol-1-yl)acetate]
0.257	COc1cc(CN2CCC(NC(=O)c3ccc(-c4cccc(F)c4)nc3)CC2)c(F)cc1Cl [Example 467, N-[1-(4-Chloro-2-fluoro-5-methoxybenzyl)piperidin-4-yl]-6-(3-fluorophenyl)nicotinamide]
0.855	O=C(NC1CCN(Cc2ccc(=O)[nH]n2)CC1)c1ccc(-c2cccc(F)c2)nc1 [Example 469, 6-(3-Fluorophenyl)-N-{1-[(6-oxo-1,6-dihydropyridazin-3-yl)methyl]piperidin-4-yl}nicotinamide]
4.14	CC(C)c1nnc2ccc(CN3CCC(NC(=O)c4ccc(-c5cccc(F)c5)nc4)CC3)cn12 [Example 470, 6-(3-Fluorophenyl)-N-{1-[(3-isopropyl[1,2,4]triazolo[4,3-a]pyridin-6-yl)methyl]piperidin-4-yl}nicotinamide]
2.68	COc1ccc2nccc(CN3CCC(NC(=O)c4ccc(-c5cccc(F)c5)nc4)CC3)c2c1 [Example 471, 6-(3-Fluorophenyl)-N-{1-[(6-methoxyquinolin-4-yl)methyl]piperidin-4-yl}nicotinamide]
0.491	CC(C)(O)c1ccc(CN2CCC(NC(=O)c3ccc(-c4cccc(F)c4)nc3)CC2)cn1 [Example 472, 6-(3-Fluorophenyl)-N-(1-{[6-(1-hydroxy-1-methylethyl)pyridin-3-yl]methyl}piperidin-4-yl)nicotinamide]
2.36	Cn1ccc(-c2ccc(CN3CCC(NC(=O)c4ccc(-c5cccc(F)c5)nc4)CC3)cc2)n1 [Example 473, 6-(3-Fluorophenyl)-N-{1-[4-(1-methyl-1H-pyrazol-3-yl)benzyl]piperidin-4-yl}nicotinamide]
1.44	Cn1nccc1-c1ccc(CN2CCC(NC(=O)c3ccc(-c4cccc(F)c4)nc3)CC2)cc1 [Example 474, 6-(3-Fluorophenyl)-N-{1-[4-(1-methyl-1H-pyrazol-5-yl)benzyl]piperidin-4-yl}nicotinamide]
4.07	O=C(NC1CCN(Cc2ccc(Br)cn2)CC1)c1ccc(-c2cccc(F)c2)nc1 [Example 475, N-{1-[(5-Bromopyridin-2-yl)methyl]piperidin-4-yl}-6-(3-fluorophenyl)nicotinamide]
0.935	O=C(NC1CCN(Cc2ccc(CF)nc2)CC1)c1ccc(-c2cccc(F)c2)nc1 [Example 476, N-(1-{[6-(Fluoromethyl)pyridin-3-yl]methyl}piperidin-4-yl)-6-(3-fluorophenyl)nicotinamide]
4.04	Cc1ccc(-c2nc(CN3CCC(NC(=O)c4ccc(-c5cccc(F)c5)nc4)CC3)n(C)n2)nn1 [Example 477, 6-(3-Fluorophenyl)-N-(1-{[1-methyl-3-(6-methylpyridazin-3-yl)-1H-1,2,4-triazol-5-yl]methyl}piperidin-4-yl)nicotinamide]
2.01	Cn1nc(-c2ccccn2)nc1CN1CCC(NC(=O)c2ccc(-c3cccc(F)c3)nc2)CC1 [Example 478, 6-(3-Fluorophenyl)-N-{1-[(1-methyl-3-pyridin-2-yl-1H-1,2,4-triazol-5-yl)methyl]piperidin-4-yl}nicotinamide]
0.421	Cc1nn(C)c(N2CCCOCC2)c1CN1CCC(NC(=O)c2ccc(-c3cccc(F)c3)nc2)CC1 [Example 479, N-(1-{[1,3-Dimethyl-5-(1,4-oxazepan-4-yl)-1H-pyrazol-4-yl]methyl}piperidin-4-yl)-6-(3-fluorophenyl)nicotinamide]
